Target: T1, ADRB1 (Homo sapiens, UniProt P08588)
T1 construct: Eurofins
Experiment: Eurofins SAFETYscan 78-target panel, off-target effects, ADRB1
Assay type: biochemical
Conditions: antagonist / blocker / inhibitor mode
Protocol: FIG. 9. Table summarizing the Eurofins analysis of potential off-target effects of M1i-124. […] values above 10 μM are generally considered to be acceptable. FIG. 10. Representative hematoxylin and eosin (H&E) staining of organ sections (lung, heart, kidney, liver and adrenal) from control and M1i-124 treated mice described in FIG. 6.
Studies were performed using the services of Touchstone Biosciences and Eurofins Pharma Discovery Services. […] All blood samples (30-50 ul per sample) were taken via tail vein at 5, 15, and 30 minutes, and 1, 2, 4, 6, 8, and 24 hours after dosing. Blood samples are collected in Greiner MiniCollect K2 EDTA tubes, placed on ice, and within 30 minutes, centrifuged at 15,000 g for 5 minutes to obtain plasma samples. All plasma samples are stored at −70° C. until analysis. Plasma samples were prepared for analysis by LC-MS/MS, and key PK parameters, including terminal half-life (t 112), initial plasma concentration (C0), area under the plasma concentration vs. time curve (AUC), volume of distribution at steady-state (Vss), total plasma clearance (CLp), and mean residence time (MRT), were measured.
Assay details are available through Eurofins.

T1 sequence (P08588 whole entry): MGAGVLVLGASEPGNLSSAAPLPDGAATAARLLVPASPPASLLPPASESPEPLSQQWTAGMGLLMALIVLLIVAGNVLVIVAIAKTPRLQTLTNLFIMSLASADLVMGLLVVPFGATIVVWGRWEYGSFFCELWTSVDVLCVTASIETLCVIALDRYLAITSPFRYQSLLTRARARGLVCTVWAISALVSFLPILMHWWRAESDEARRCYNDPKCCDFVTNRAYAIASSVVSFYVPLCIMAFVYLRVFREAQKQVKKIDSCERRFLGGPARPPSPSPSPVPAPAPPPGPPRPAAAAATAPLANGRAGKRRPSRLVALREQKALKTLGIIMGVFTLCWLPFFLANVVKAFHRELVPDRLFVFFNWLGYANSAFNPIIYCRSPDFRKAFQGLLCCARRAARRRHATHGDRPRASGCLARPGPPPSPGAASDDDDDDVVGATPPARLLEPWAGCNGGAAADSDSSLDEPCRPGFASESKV

Structure (SMILES): O=S(=O)(NCc1ccc2c(c1)OCO2)c1ccc(Cc2ccc(S(=O)(=O)NCc3ccc4c(c3)OCO4)cc2)cc1 [M1i-124]
- IC50: 800 nM

Reference: patent publication US20240124410A1, “SMALL MOLECULES AND THEIR USE AS MALT1 INHIBITORS” (University of Pittsburgh - Of the Commonwealth System of …, priority 2021, published 2024)
